Patent US10975068B2, “6-aminopyridin-3-yl thiazoles as modulators of RORγT” (Janssen Pharmaceutica NV, priority 2016, dated 2021)

How the values were obtained:
[1] = system: IL-17 production by CD4 T cells; assay: Human Th17 assay; type: cell-based; details: read-out: Human Th17 Assay, IC50
[2] = target: full-length human RORγt (Homo sapiens (Human), UniProt P51449); assay: RORγt (full-length human) reporter assay, Conditions B or C; type: cell-based; details: for inhibition at 3 µM: at 3 μM compound concentration, read-out: RORγt (FL) Reporter Assay B or C, % inhibition; for IC50: read-out: RORγt (FL) Reporter Assay B or C, IC50
Method in brief: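 HEK293T cells transiently co-transfected with GAL4-DBD–full-length human RORγt (nt 142-1635, NM_001001523.1) plus GAL4-firefly and CMV-Renilla luciferase reporters; compounds added 4-6 h post-transfection for 16-20 h in 1.3% FBS, 0.1% DMSO. Firefly signal normalized to DMSO and saturating reference compound, then to Renilla; IC50 from concentration plots.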

Sequence of full-length human RORγt (P51449 other isoform, or with tags, fused parts or gaps): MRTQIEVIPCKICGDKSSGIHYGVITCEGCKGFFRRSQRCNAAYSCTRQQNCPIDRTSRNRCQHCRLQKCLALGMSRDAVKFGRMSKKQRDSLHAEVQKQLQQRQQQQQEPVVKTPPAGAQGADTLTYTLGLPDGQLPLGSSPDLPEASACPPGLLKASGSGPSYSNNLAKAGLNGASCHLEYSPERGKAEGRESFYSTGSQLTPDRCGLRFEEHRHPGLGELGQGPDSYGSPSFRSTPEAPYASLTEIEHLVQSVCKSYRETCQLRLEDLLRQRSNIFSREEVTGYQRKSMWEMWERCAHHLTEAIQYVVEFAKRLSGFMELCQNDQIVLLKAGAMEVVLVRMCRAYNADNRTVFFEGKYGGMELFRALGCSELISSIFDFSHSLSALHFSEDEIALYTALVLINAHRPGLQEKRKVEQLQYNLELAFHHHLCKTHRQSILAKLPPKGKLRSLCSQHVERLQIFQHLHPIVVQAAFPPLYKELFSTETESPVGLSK

Row | IC50 [1] [nM] | inhibition at 3 µM [2] [%] | IC50 [2] [nM] | Compound
1 | 89 | 100 | 36 | C[C@H]1CCCN1C(=O)c1nc(C(=O)NCc2n[nH]c(=O)o2)sc1-c1cnc(NC(C)(C)C)cc1C(F)(F)F [Example 305, (S)-5-(6-(tert-Butylamino)-4-(trifluoromethyl)pyridin-3-yl)-4-(2-methylpyrrolidine-1-carbonyl)-N-((5-oxo-4,5-dihydro-1,3,4-oxadiazol-2-yl)methyl)thiazole-2-carboxamide]
2 | 11 | 108 | 5.6 | C[C@H](NC(=O)c1nc(C(=O)N2CCC[C@@H]2C)c(-c2cnc(NC(C)(C)C)cc2C(F)(F)F)s1)C(C)(C)O [Example 336, 5-[6-(tert-Butylamino)-4-(trifluoromethyl)-3-pyridyl]-N-[(1S)-2-hydroxy-1,2-dimethyl-propyl]-4-[(2S)-2-methylpyrrolidine-1-carbonyl]thiazole-2-carboxamide]

Row | Compound | IC50 [1] [nM] | inhibition at 3 µM [2] [%] | IC50 [2] [nM]
3 | O=C(N[C@H]1C[C@H](O)C1)c1nc(C(=O)N2C3CCC2CC3)c(-c2cnc(N[C@@H](C3CC3)C(F)(F)F)cc2C(F)F)s1 [Example 318, 4-((1s,4s)-7-Azabicyclo[2.2.1]heptane-7-carbonyl)-5-(6-(((S)-1-cyclopropyl-2,2,2-trifluoroethyl)amino)-4-(difluoromethyl)pyridin-3-yl)-N-((1r,3S)-3-hydroxycyclobutyl)thiazole-2-carboxamide] | 17 | 86 | 28
